Assay results reported in ChEMBL document CHEMBL1201862, “PubChem BioAssay data set” (2004).
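Cultured in 96-well plates, cells were exposed to test compound for 48 hours across five concentrations. GI50 is the concentration that inhibits growth by half.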 The source made the active and inactive calls. Cut-off read from the data, not from the text of the source: active = GI50 up to about 1.1 µM and inactive = higher.

Tests used:
Test in all cases: inhibition of tumour cell growth, NCI panel, 48 h
786-0 = test system: 786-0
A498 = test system: A498
A549 = test system: A549
ACHN = test system: ACHN
CAKI-1 = test system: CAKI-1
COLO 205 = test system: COLO 205
DU-145 = test system: DU-145
EKVX = test system: EKVX
HCT-116 = test system: HCT-116
HCT-15 = test system: HCT-15
HL-60 = test system: HL-60
HOP-62 = test system: HOP-62
HOP-92 = test system: HOP-92
HT-29 = test system: HT-29
Hs-578T = test system: Hs-578T
IGROV-1 = test system: IGROV-1
K562 = test system: K562
KM12 = test system: KM12
LOX IMVI = test system: LOX IMVI
M14 = test system: M14
MCF7 = test system: MCF7
MDA-MB-231 = test system: MDA-MB-231
MDA-MB-435 = test system: MDA-MB-435
MDA-N = test system: MDA-N
MOLT-4 = test system: MOLT-4
Malme-3M = test system: Malme-3M
NCI-H226 = test system: NCI-H226
NCI-H23 = test system: NCI-H23
NCI-H460 = test system: NCI-H460
NCI-H522 = test system: NCI-H522
NCI/ADR-RES = test system: NCI/ADR-RES
OVCAR-3 = test system: OVCAR-3
OVCAR-4 = test system: OVCAR-4
OVCAR-5 = test system: OVCAR-5
OVCAR-8 = test system: OVCAR-8
PC-3 = test system: PC-3
RPMI-8226 = test system: RPMI-8226
RXF 393 = test system: RXF 393
SF-268 = test system: SF-268
SF-295 = test system: SF-295
SF-539 = test system: SF-539
SK-MEL-28 = test system: SK-MEL-28
SK-MEL-2 = test system: SK-MEL-2
SK-MEL-5 = test system: SK-MEL-5
SK-OV-3 = test system: SK-OV-3
SN12C = test system: SN12C
SNB-19 = test system: SNB-19
SNB-75 = test system: SNB-75
SR = test system: SR
SW-620 = test system: SW-620
T47D = test system: T47D
TK-10 = test system: TK-10
U-251 = test system: U-251
UACC-257 = test system: UACC-257
UACC-62 = test system: UACC-62
UO-31 = test system: UO-31
CCRF-CEM = test system: CCRF-CEM
HCC 2998 = test system: HCC 2998

COC(=O)C1CCC(=O)N1CN(C(C)=O)c1cc(OC)ccc1OC (centres undefined)
GI50 (786-0): > 100 µM (inactive)
GI50 (A498): > 100 µM (inactive)
GI50 (A549): > 100 µM (inactive)
GI50 (ACHN): > 100 µM (inactive)
GI50 (CAKI-1): > 100 µM (inactive)
GI50 (COLO 205): > 100 µM (inactive)
GI50 (DU-145): > 100 µM (inactive)
GI50 (EKVX): > 100 µM (inactive)
GI50 (HCT-116): > 100 µM (inactive)
GI50 (HCT-15): > 100 µM
GI50 (HL-60): > 100 µM (inactive)
GI50 (HOP-62): > 100 µM (inactive)
GI50 (HOP-92): > 100 µM (inactive)
GI50 (HT-29): > 100 µM (inactive)
GI50 (Hs-578T): > 100 µM (inactive)
GI50 (IGROV-1): > 100 µM (inactive)
GI50 (K562): > 100 µM (inactive)
GI50 (KM12): > 100 µM (inactive)
GI50 (LOX IMVI): > 100 µM (inactive)
GI50 (M14): > 100 µM (inactive)
GI50 (MCF7): > 100 µM (inactive)
GI50 (MDA-MB-231): > 100 µM (inactive)
GI50 (MDA-MB-435): > 100 µM (inactive)
GI50 (MDA-N): > 100 µM (inactive)
GI50 (MOLT-4): > 100 µM (inactive)
GI50 (Malme-3M): > 100 µM (inactive)
GI50 (NCI-H226): > 100 µM (inactive)
GI50 (NCI-H23): > 100 µM (inactive)
GI50 (NCI-H460): > 100 µM (inactive)
GI50 (NCI-H522): > 100 µM (inactive)
GI50 (NCI/ADR-RES): > 100 µM (inactive)
GI50 (OVCAR-3): > 100 µM (inactive)
GI50 (OVCAR-4): > 100 µM (inactive)
GI50 (OVCAR-5): > 100 µM (inactive)
GI50 (OVCAR-8): > 100 µM (inactive)
GI50 (PC-3): > 100 µM (inactive)
GI50 (RPMI-8226): > 100 µM (inactive)
GI50 (RXF 393): > 100 µM (inactive)
GI50 (SF-268): > 100 µM (inactive)
GI50 (SF-295): > 100 µM (inactive)
GI50 (SF-539): > 100 µM (inactive)
GI50 (SK-MEL-28): > 100 µM (inactive)
GI50 (SK-MEL-2): > 100 µM (inactive)
GI50 (SK-MEL-5): > 100 µM (inactive)
GI50 (SK-OV-3): > 100 µM (inactive)
GI50 (SN12C): > 100 µM (inactive)
GI50 (SNB-19): > 100 µM (inactive)
GI50 (SNB-75): > 100 µM (inactive)
GI50 (SR): 16.9 µM (inactive)
GI50 (SW-620): > 100 µM (inactive)
GI50 (T47D): > 100 µM (inactive)
GI50 (TK-10): > 100 µM (inactive)
GI50 (U-251): > 100 µM (inactive)
GI50 (UACC-257): > 100 µM (inactive)
GI50 (UACC-62): > 100 µM (inactive)
GI50 (UO-31): > 100 µM (inactive)

Cn1c(=O)c(Br)c(C=O)n(CCO[N+](=O)[O-])c1=O
GI50 (786-0): 5.14 µM (inactive)
GI50 (A498): 18.2 µM (inactive)
GI50 (A549): 16.1 µM (inactive)
GI50 (ACHN): 3.71 µM (inactive)
GI50 (CCRF-CEM): 1.62 µM (inactive)
GI50 (COLO 205): 5.92 µM (inactive)
GI50 (DU-145): 27.2 µM (inactive)
GI50 (EKVX): 2.78 µM (inactive)
GI50 (HCC 2998): 15.4 µM (inactive)
GI50 (HCT-116): 3.78 µM (inactive)
GI50 (HCT-15): 4.83 µM
GI50 (HL-60): 1.77 µM (inactive)
GI50 (HOP-62): 21.6 µM (inactive)
GI50 (HOP-92): 2.72 µM (inactive)
GI50 (Hs-578T): 31 µM (inactive)
GI50 (K562): 2.66 µM (inactive)
GI50 (LOX IMVI): 2.14 µM (inactive)
GI50 (M14): 3.99 µM (inactive)
GI50 (MCF7): 1.97 µM (inactive)
GI50 (MDA-MB-231): 2.53 µM (inactive)
GI50 (MDA-MB-435): 5.42 µM (inactive)
GI50 (MDA-N): 4.23 µM (inactive)
GI50 (MOLT-4): 1.87 µM (inactive)
GI50 (NCI-H226): 51.3 µM (inactive)
GI50 (NCI-H23): 5.7 µM (inactive)
GI50 (NCI-H460): 15.9 µM (inactive)
GI50 (NCI/ADR-RES): 1.74 µM (inactive)
GI50 (OVCAR-5): 3.88 µM (inactive)
GI50 (OVCAR-8): 2.52 µM (inactive)
GI50 (PC-3): 9.14 µM (inactive)
GI50 (RPMI-8226): 2.26 µM (inactive)
GI50 (SF-268): 4.28 µM (inactive)
GI50 (SF-539): 7.76 µM (inactive)
GI50 (SK-MEL-28): 2.07 µM (inactive)
GI50 (SK-MEL-2): 3.59 µM (inactive)
GI50 (SK-MEL-5): 11.2 µM (inactive)
GI50 (SK-OV-3): 18.5 µM (inactive)
GI50 (SN12C): 4.34 µM (inactive)
GI50 (SNB-19): 26.2 µM (inactive)
GI50 (SNB-75): 12.2 µM (inactive)
GI50 (SR): 2.16 µM (inactive)
GI50 (SW-620): 2.26 µM (inactive)
GI50 (T47D): 1.87 µM (inactive)
GI50 (TK-10): 3.86 µM (inactive)
GI50 (U-251): 3.02 µM (inactive)
GI50 (UACC-62): 1.23 µM (inactive)
GI50 (UO-31): > 10 µM (inactive)

O=C1OCCC[C@H]2O[C@@H](COCc3ccccc3)C[C@@H]12
GI50 (786-0): > 100 µM (inactive)
GI50 (A498): > 100 µM (inactive)
GI50 (A549): > 100 µM (inactive)
GI50 (ACHN): > 100 µM (inactive)
GI50 (CAKI-1): > 100 µM (inactive)
GI50 (CCRF-CEM): > 100 µM (inactive)
GI50 (COLO 205): > 100 µM (inactive)
GI50 (DU-145): > 100 µM (inactive)
GI50 (HCT-116): > 100 µM (inactive)
GI50 (HCT-15): > 100 µM
GI50 (HL-60): > 100 µM (inactive)
GI50 (HOP-62): > 100 µM (inactive)
GI50 (HOP-92): > 100 µM (inactive)
GI50 (HT-29): > 100 µM (inactive)
GI50 (Hs-578T): > 100 µM (inactive)
GI50 (K562): > 100 µM (inactive)
GI50 (KM12): > 100 µM (inactive)
GI50 (M14): > 100 µM (inactive)
GI50 (MCF7): > 100 µM (inactive)
GI50 (MDA-MB-231): > 100 µM (inactive)
GI50 (MDA-MB-435): > 100 µM (inactive)
GI50 (MDA-N): > 100 µM (inactive)
GI50 (MOLT-4): > 100 µM (inactive)
GI50 (NCI-H226): > 100 µM (inactive)
GI50 (NCI-H23): > 100 µM (inactive)
GI50 (NCI-H460): > 100 µM (inactive)
GI50 (NCI/ADR-RES): > 100 µM (inactive)
GI50 (OVCAR-3): > 100 µM (inactive)
GI50 (OVCAR-4): > 100 µM (inactive)
GI50 (OVCAR-5): > 100 µM (inactive)
GI50 (OVCAR-8): > 100 µM (inactive)
GI50 (PC-3): > 100 µM (inactive)
GI50 (RPMI-8226): > 100 µM (inactive)
GI50 (SF-268): > 100 µM (inactive)
GI50 (SF-295): > 100 µM (inactive)
GI50 (SF-539): > 100 µM (inactive)
GI50 (SK-MEL-28): > 100 µM (inactive)
GI50 (SK-MEL-2): > 100 µM (inactive)
GI50 (SK-MEL-5): > 100 µM (inactive)
GI50 (SK-OV-3): > 100 µM (inactive)
GI50 (SN12C): > 100 µM (inactive)
GI50 (SNB-19): > 100 µM (inactive)
GI50 (SNB-75): > 100 µM (inactive)
GI50 (SR): > 100 µM (inactive)
GI50 (SW-620): > 100 µM (inactive)
GI50 (T47D): > 100 µM (inactive)
GI50 (TK-10): > 100 µM (inactive)
GI50 (U-251): > 100 µM (inactive)
GI50 (UACC-257): > 100 µM (inactive)
GI50 (UACC-62): > 100 µM (inactive)
GI50 (UO-31): > 100 µM (inactive)
